In patent US20250091982A1, “Pharmaceutical Composition, Methods of Use Thereof for Treating Cocaine Addiction, and Novel Use of Hausp K444R Point Mutant Mouse” (PHARWAR BIOTECHNOLOGY, INC. PTE. LTD., priority 2022, published 2025):

Legend:
SIAH1 = target: T1, SIAH1 (Homo sapiens, UniProt Q8IUQ4); assay: E3-ligase auto ubiquitination assay (K48-linked polyubiquitination of HAUSP mediated by SIAH1); assay type: biochemical; settings: 37° C., 1 hour, Western blot with Ub-K48 antibody, compared to vehicle; FIG. 14A, 14B
T1 sequence (Q8IUQ4 1-282): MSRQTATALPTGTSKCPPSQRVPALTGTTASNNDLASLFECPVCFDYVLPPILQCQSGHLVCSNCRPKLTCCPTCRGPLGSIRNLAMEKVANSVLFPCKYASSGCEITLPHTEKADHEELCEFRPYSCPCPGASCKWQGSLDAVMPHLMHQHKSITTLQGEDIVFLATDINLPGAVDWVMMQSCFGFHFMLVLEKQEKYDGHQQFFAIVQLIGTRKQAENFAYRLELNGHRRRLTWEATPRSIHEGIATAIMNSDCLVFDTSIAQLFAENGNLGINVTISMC
Description: SIAH1 mediates the K48-linked polyubiquitination of HAUSP. Therefore, for the ubiquitination assay, SIAH1 was incubated in the solution (0.25 mg/1 ml, total 100 μg) containing 20 mM Tris-HCl buffer (pH 8.0), 100 mM NaCl, 1 mM DTT and 40% glycerol and HAUSP (50 μg) was in 50 mM HEPES pH 7.5, 100 mM NaCl, 1 mM TCEP (tris (2-carboxyethyl) phosphine) buffer. […] The E3-ligase auto ubiquitination assay was performed by E3 Ligase Auto-Ubiquitilylation Assay Kit (Abcam, ab139469, UK).

[1] = tested on: cocaine conditioned place preference; assay: Conditioned place preference (CPP) test induced by cocaine; assay type: in vivo, mice; settings: compound 10 mg/kg 10 mins before cocaine 25 mg/kg i.p.; FIG. 12D
Source text: (§1) Conditioned place preference (CPP) is a classical conditioning paradigm used in behavioral neuroscience to study the rewarding and aversive properties of drugs or other stimuli. It involves associating a particular environment or location with the experience of a rewarding or aversive stimulus, such as drugs, food, or electric shock. In CPP experiment, mice were first trained to associate one compartment of a box and then, they were placed in the neutral compartment and allowed to freely explore both compartments, and animals' preference for one compartment over the other was measured. After vehicle/Compound 2-2 (10 mg/kg)/Compound 2-3 (10 mg/kg)/Compound 3-3 (10 mg/kg) treatment for 10 mins, the well-trained mice were administrated with cocaine (25 mg/kg, i.p.) for 30 mins. The content of the vehicle is 0.5% DMSO, 25% PEG-300, 4% Tween-80, and 70.5% saline. The locomotion activity experiment was the same as the method of open field test described in Experiment 2.

[2] = tested on: heart rate and blood pressure induced by cocaine; assay: Heart rate and blood pressure of cocaine induced mice; assay type: in vivo, C57BL/6JNar1 mice; settings: cocaine 25 mg/kg/day i.p. three months, then compound 25 mg/kg/day three months; FIG. 15
Description: (§2) C57BL/6JNar1 mice of 6-months age were used in this Experiment. This Experiment included four groups: the normal control group (saline group), the cocaine+saline group, the cocaine+Compound 2-2 group, and the cocaine+Compound 3-3 group. There were 7 mice in the cocaine+Compound 2-2 group and 6 mice each in the rest of the groups. The normal control group received no experimental treatment. […] Heart rate, systolic blood pressure and mean blood pressure of all four groups were measured with a device (MK-2000ST, NP-NIBP Monitor for Mice & Rats, Muromachi, Japan) and the results thereof were shown in FIG. 15. Moreover, the Fr structure of all four groups was measured according to the method of Experiment 7 and the results thereof were shown in FIG. 16 and FIGS. 17A and 17B.

[3] = tested on: HAUSP levels in SH-SY5Y cells; assay: Western blot of HAUSP in cocaine-treated SH-SY5Y cells; settings: cocaine 200 μM with inhibitor, 24 hr; for HAUSP levels decreased by cocaine in SH-SY5Y cells (western blot): FIG. 14C; for relative protein expression ratios of HAUSP normalized with β-actin: quantified with ImageJ, FIG. 14D
[4] = tested on: Fasciculus retroflexus (Fr) structure; assay: Fr structure of cocaine induced mice after treatment; assay type: in vivo, C57BL/6JNar1 mice; settings: cocaine 25 mg/kg/day i.p. three months, then compound 25 mg/kg/day three months; for length of Fr diminished by cocaine treatment: FIG. 16, 17A; for volume of Fr diminished by cocaine treatment: FIG. 16, 17B
Description: as §2

[5] = tested on: lever press induced by cocaine; assay: Lever press test (cocaine self-administration); assay type: in vivo, mice; settings: 10 mg/kg intraperitoneally 10 min prior to cocaine self-administration; for cumulative cocaine reinforcements: FIG. 13G; for latency to first response in mice treated with cocaine: FIG. 13H; for lever press frequencies induced by cocaine treatment: FIGS. 13A to 13F
Description: Mice were anesthetized with isoflurane (induction and maintenance at 4%-5%) for surgical implantation of a jugular vein catheter connected to a head-mounted entry port. Briefly, the right jugular vein was exposed, and the catheter tubing was inserted and secured to the vein. The catheter was passed under the skin to an incision on the head, and the port was secured to the skull with dental cement anchored by screws. Mice were given buprenorphine (0.05-0.10 mg/kg, intraperitoneal.) for analgesia and allowed to recover for 7-10 days before beginning self-administration. Catheter patency was maintained by daily infusion of 100 μl heparin (120 U/μl) through the catheter and treated with Cefazolin, 200 mg/kg, subcutaneously, to prevent bacterial infections.
The lever press test was done in extra wide mouse operant chambers with a modified top (Med Associates, VT, USA). The chamber contained a retractable lever, a food pellet receptacle connected to a pellet dispenser, with a stimulus light above the pellet receptacle, and contained a house light. Cocaine was delivered by a syringe pump located outside the chamber, and the drug delivery tubing was connected to the mice through a swivel (Instech, Plymouth Meeting, PA, USA) and the swivel arm connected on top of the chamber to allow free movement of the mice during self-administration. All the sessions were remotely operated and recorded by MED-PC V software (Med Associates, VT, USA). Mice were pre-trained with food through pressing the levers and were food-restricted during the study. After training, mice were provided ad libitum access to water and food.
Self-administration sessions took place once daily during the light-dark cycle for 14 consecutive days. Before starting the study, mice were allowed to acclimate to the housing for approximately 3 days. The availability of cocaine reward was indicated by illumination of the house light and pressing levers. […] Each infusion was paired with a cue (1 s illumination of the stimulus green light) followed by a 10-second time-out signaled by turning off the house light. […] Each chamber was operated under a 3-hour session, or until mice received 100 infusions (20 mg/kg) of cocaine (to prevent cocaine overdose). No treatment groups were implanted with a catheter and placed in the operant chambers with identical cues but not connected to the syringe pump and received no reward for pressing the active levers. Vehicle or inhibitor (Compound 2-2, Compound 2-3, or Compound 3-3) with a dosage of 10 mg/kg was injected intraperitoneally for 10 min prior to cocaine self-administration. The content of the vehicle is 0.5% DMSO, 25% PEG-300, 4% Tween-80, and 70.5% saline. Mice met criteria for acquisition of self-administration when they: (1) self-administered at least 30 infusions in a session; (2) >85% of responses were on the active […]; and (3) had no more than 20% variation in number of infusions between sessions. The lever press frequency and number within 3 hours indicate the cocaine addiction symptom.

[6] = tested on: locomotion activity induced by cocaine; assay: Locomotion activity (open field test) of cocaine induced mice; assay type: in vivo; settings: compound 10 mg/kg 10 mins before cocaine 25 mg/kg i.p.; FIGS. 12A to 12C
Source text: 8 mice from Preparation Example 2 were randomly chosen to conduct Locomotion Activity I. The open fields using white acrylic chambers measured 50 cm (length)×50 cm (width)×38 cm (height) were made from white high density and non-porous plastics. Once the Video Tracking software (ANY-maze, Stoelting Co, IL, USA) was opened, the cursor was moved to the “Single-Subject Tracking” option located under the “Data Acquisition” tab and single-clicked to open this option. The software package used in this protocol allows the tracking of up to 6 individual mice at one time. The mice were brought to open fields to acclimate to the procedure room for 30 minutes (min) prior to starting the test. The tracking plot of randomly chosen 6 mice was recorded and analyzed by ANY-maze software.
as §1

[7] = tested on: Fasciculus retroflexus (Fr) structure; assay: Mouse brain analysis: Fr structure after cocaine treatment; settings: wild-type mice, cocaine 25 mg/kg/day for three months, compared to control wild-type mice
Description: Cocaine treated mice were C57BL/6j mice treated with cocaine at 10 a.m. with a dosage of 25 mg/kg/day for three months while the control mice (Hausp^WT) and Hausp^K444R mice were treated with saline. All mice were housed under conditions of controlled humidity (55±10%) and temperature (22±2° C.), with a reversed light cycle in this experiment.
After the above treatments, all organs were obtained after mouse heart perfusion by saline, and fixed by 4% paraformaldehyde solution for 24 h for H&E, LFB, Silver, Masson's trichrome staining and immunohistochemistry (IHC). Fresh tissues were immediately homogenized in T-PER™ by tissue homogenizer (HT mini homogenizer, OPS Diagnostics LLC, USA) for Western blot analysis.
Mouse brains were processed following SHIELD processing protocol according to Park, Y. G. et al. 2019. Mice were perfused with ice-cold PBS and then with the SHIELD perfusion solution (ice-cold 1× PBS containing 4% (w/v) PFA and GE38 (polyglycerol 3-polyglycidyl ether) supernatant). Collected brains were incubated in the same perfusion solution at 4° C. for two days. […] Images were reconstructed to a multi-channel-z stack using Imaris file converter, and the regions of the whole brain, habenula region were masked and quantified using the surface function in Imaris software version 9.5.

## COCCNC(=O)c1ccc(Cl)cc1NC(=O)c1ccccc1C [Compound 2-2, 4-Chloro-N-(2-methoxyethyl)-2-(2-methylbenzamido) benzamide]
SIAH1
  inhibition of K48-linked polyubiquitination of HAUSP mediated by SIAH1: can inhibit
[1]
  time spent in cocaine paired compartments (CPP test): decreased
[2]
  blood pressure induced by cocaine: decreased
  heart rate induced by cocaine: decreased
[3]
  HAUSP levels decreased by cocaine in SH-SY5Y cells (western blot): can restore
  relative protein expression ratios of HAUSP normalized with β-actin: can restore
[4]
  length of Fr diminished by cocaine treatment: partially rescued
  volume of Fr diminished by cocaine treatment: partially rescued
[5]
  cumulative cocaine reinforcements: decreased
  latency to first response in mice treated with cocaine: increased
  lever press frequencies induced by cocaine treatment: decreased
[6]
  increased locomotion activity or increased distance traveled induced by cocaine treatment: decreased

## COCCNC(=O)c1ccccc1NC(=O)c1c(C)cc(C)cc1C [Compound 3-3, N-(2-((2-Methoxyethyl)carbamoyl)phenyl)-2,4,6-trimethylbenzamide]
SIAH1
  inhibition of K48-linked polyubiquitination of HAUSP mediated by SIAH1: can inhibit
[1]
  time spent in cocaine paired compartments (CPP test): decreased
[2]
  blood pressure induced by cocaine: decreased
  heart rate induced by cocaine: decreased
[3]
  HAUSP levels decreased by cocaine in SH-SY5Y cells (western blot): can restore
  relative protein expression ratios of HAUSP normalized with β-actin: can restore
[4]
  length of Fr diminished by cocaine treatment: partially rescued
  volume of Fr diminished by cocaine treatment: partially rescued
[5]
  cumulative cocaine reinforcements: decreased
  latency to first response in mice treated with cocaine: increased
  lever press frequencies induced by cocaine treatment: decreased
[6]
  increased locomotion activity or increased distance traveled induced by cocaine treatment: decreased

## COC(=O)[C@H]1[C@@H](OC(=O)c2ccccc2)C[C@@H]2CC[C@H]1N2C [cocaine]
[7]; FIG. 10D
  diameter of Fr: decreased
[7]; FIG. 10E
  length of Fr: decreased
